# Data taken from patent US8686150B2 (Sanofi, priority 2011, dated 2014).
# Target: T1, human full-length recombinant PKC βII (Homo sapiens, UniProt P05771)
# T1 construct: Active human full-length recombinant PKC βII; purchased Invitrogen GmbH, Darmstadt, Germany
# Experiment: Determination of PKC βII inhibition (Caliper mobility-shift kinase assay, Fluorescein-RFARKGSLRQKNV peptide substrate)
# Type: biochemical
# Details: example compounds at a final concentration of 1.14 μM (±0.15 μM)
# Protocol: Determination of PKC βII Inhibition
# PKC βII Inhibition was Determined According to the Following Protocol:
# Active human full-length recombinant PKC βII and the peptide substrate, Fluorescein-RFARKGSLRQKNV, were purchased from Invitrogen GmbH, Darmstadt, Germany. Adenosine-5′-triphosphate (ATP), bovine serum albumine (BSA), dimethylsulphoxide (DMSO), 4-(2-hydroxyethyl)piperazine-1-ethanesulfonic acid (Hepes), Triton X-100, 1,2-Dioleoyl-sn-glycerol (DAG), L-G-Phosphatidyl-L-serine (PS), calcium chloride (CaCl2), and Pluronic F-68 were purchased from Sigma-Aldrich, Munich, Germany. Magnesium chloride, 1 M sodium hydroxide solution, 1M hydrochloric acid solution and EDTA were obtained from Merck Biosciences, Darmstadt, Germany.
# Test compounds were diluted to three times the test concentration in buffer 1 (30 mM Hepes-NaOH, pH 7.4, 0.01% Pluronic F-68 and 3% (v/v) DMSO). The PKC enzyme was diluted to a concentration of 30 ng/ml in buffer 2 (30 mM Hepes-NaOH, pH 7.4, 15 mM MgCl2, 150 μM CaCl2, 150 μg/ml PS, 60 μg/ml DAG, and 0.045% (w/v) Triton X-100). The peptide substrate and ATP were diluted to concentrations of 3 μM and 120 μM, respectively, in buffer 2. Two μl of the compound solution were mixed with 2 μl of the diluted enzyme in a 384-well small volume microtiter plate (Greiner, Bio-One, Frickenhausen, Germany), and the kinase reaction was initiated by addition of 2 μl of the solution containing peptide substrate and ATP. After 60 min incubation at 32° C., the reaction was stopped by addition of 20 μl of a solution containing 130 mM Hepes-NaOH, pH 7.4. 0.0195% (v/v) Brij-35, 6.5 mM EDTA. 0.13% chip coating reagent 3 (Caliper Lifescience Inc, Hopkinton, Mass.) and 6.5% (v/v) DMSO. Phosphorylation of the substrate peptide was then detected on a Caliper 3000 instrument essentially as described by Pommereau et al (J. Biomol. Screening 2004, 9(5), 409-416). Separation conditions were as follows: Pressure −0.8 psi, upstream voltage −3000 V, downstream voltage −800 V. Positive controls (buffer 1 instead of compound) and negative controls (buffer 1 instead of compound and buffer 2 instead of kinase solution) were run in parallel on each plate. Fractional turnover (R) was determined as the height of the peak of the phosphorylated peptide product divided by the sum of the unphosphorylated substrate and phosphorylated product peak heights. Percent-inhibition values for the test compounds were determined using the formula % Inhibition=100*(1−(Rcompound−Rnegative control)/(Rpositive control−Rnegative control).
# In the following table % inhibition values observed with example compounds at a final concentration of 1.14 μM (±0.15 μM) are listed: […]
# T1 sequence (P05771 1-673 isoform P05771-2): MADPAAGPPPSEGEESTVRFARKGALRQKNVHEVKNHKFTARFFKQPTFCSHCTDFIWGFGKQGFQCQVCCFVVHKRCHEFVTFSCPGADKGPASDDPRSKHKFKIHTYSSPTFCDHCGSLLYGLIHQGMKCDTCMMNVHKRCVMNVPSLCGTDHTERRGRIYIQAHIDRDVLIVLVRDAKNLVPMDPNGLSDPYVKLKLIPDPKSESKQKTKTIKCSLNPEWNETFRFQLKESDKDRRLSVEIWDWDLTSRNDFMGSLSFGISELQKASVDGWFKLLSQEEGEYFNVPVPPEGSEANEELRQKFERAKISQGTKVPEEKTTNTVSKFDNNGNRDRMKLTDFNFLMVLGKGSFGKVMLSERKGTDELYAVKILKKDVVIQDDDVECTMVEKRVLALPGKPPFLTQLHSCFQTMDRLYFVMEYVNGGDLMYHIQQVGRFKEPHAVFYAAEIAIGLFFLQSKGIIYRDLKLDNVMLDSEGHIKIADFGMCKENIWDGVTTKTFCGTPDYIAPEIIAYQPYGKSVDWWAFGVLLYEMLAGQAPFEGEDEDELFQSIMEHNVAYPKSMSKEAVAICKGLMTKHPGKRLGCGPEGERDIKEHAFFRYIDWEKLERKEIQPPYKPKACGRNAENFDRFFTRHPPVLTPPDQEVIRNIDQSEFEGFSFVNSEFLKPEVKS
row,SMILES,inhibition at 1.14 µM
1,"Cc1n[nH]c2nc(-c3ccc(O)cc3)cc(C(=O)N3CCNCC3c3cc(F)cc(F)c3)c12 (centres unmarked) [Example 87, [2-(3,5-Difluoro-phenyl)-piperazin-1-yl]-[6-(4-hydroxy-phenyl)-3-methyl-1H-pyrazolo[3,4-b]pyridin-4-yl]-methanone]",93%
2,"CC[C@H]1CN(C(=O)c2cc(-c3ccc(O)cc3)nc3[nH]nc(C)c23)CCN1 [Example 210, ((S)-3-Ethyl-piperazin-1-yl)-[6-(4-hydroxy-phenyl)-3-methyl-1H-pyrazolo[3,4-b]pyridin-4-yl]-methanone]",100%
3,"Cc1n[nH]c2nc(-c3ccc(O)cc3)cc(C(=O)N(C)CCNC(C)(C)C)c12 [Example 40, 6-(4-Hydroxy-phenyl)-3-methyl-1H-pyrazolo[3,4-b]pyridine-4-carboxylic acid (2-tert-butylamino-ethyl)-methyl-amide]",38%
4,"COc1cccc(C2CNCCN2C(=O)c2cc(-c3ccc(O)cc3C)nc3[nH]nc(C)c23)c1 (centres unmarked) [Example 146, [6-(4-Hydroxy-2-methyl-phenyl)-3-methyl-1H-pyrazolo[3,4-b]pyridin-4-yl]-[2-(3-methoxy-phenyl)-piperazin-1-yl]-methanone]",97%
5,"Cc1n[nH]c2nc(-c3ccc(O)c(F)c3)cc(C(=O)NC3CC4CCC(C3)N4C)c12 (centres unmarked) [Example 301, 6-(3-Fluoro-4-hydroxy-phenyl)-3-methyl-1H-pyrazolo[3,4-b]pyridine-4-carboxylic acid (8-methyl-8-aza-bicyclo[3.2.1]oct-3-yl)-amide]",63%
6,"COc1cc(O)ccc1-c1cc(C(=O)N2CCNC[C@@H]2C)c2c(C)n[nH]c2n1 [Example 18, [6-(4-Hydroxy-2-methoxy-phenyl)-3-methyl-1H-pyrazolo[3,4-b]pyridin-4-yl]-((S)-2-methyl-piperazin-1-yl)-methanone]",94%
7,"Cc1n[nH]c2nc(-c3ccc(O)c(F)c3)cc(C(=O)N3CCC4(CCNCC4)C3)c12 [Example 343, (2,8-Diaza-spiro[4.5]dec-2-yl)-[6-(3-fluoro-4-hydroxy-phenyl)-3-methyl-1H-pyrazolo[3,4-b]pyridin-4-yl]-methanone]",49%
8,"Cc1n[nH]c2nc(-c3ccc(O)cc3)cc(C(=O)N3CCN(C(=O)c4ccoc4)CC3)c12 [Example 380, [4-(Furan-3-carbonyl)-piperazin-1-yl]-[6-(4-hydroxy-phenyl)-3-methyl-1H-pyrazolo[3,4-b]pyridin-4-yl]-methanone]",83%
9,"Cc1n[nH]c2nc(-c3ccc(O)c(F)c3)cc(C(=O)NC3CC(C)(C)N(C)C(C)(C)C3)c12 [Example 364, 6-(3-Fluoro-4-hydroxy-phenyl)-3-methyl-1H-pyrazolo[3,4-b]pyridine-4-carboxylic acid (1,2,2,6,6-pentamethyl-piperidin-4-yl)-amide]",38%
10,"Cc1n[nH]c2nc(-c3ccc(O)cc3)cc(C(=O)N3CCCC(N)C3)c12 (centres unmarked) [Example 76, (3-Amino-piperidin-1-yl)-[6-(4-hydroxy-phenyl)-3-methyl-1H-pyrazolo[3,4-b]pyridin-4-yl]-methanone]",88%
11,"Cc1n[nH]c2nc(-c3ccc(O)cc3)cc(C(=O)NC3CCNCC3)c12 [Example 74, 6-(4-Hydroxy-phenyl)-3-methyl-1H-pyrazolo[3,4-b]pyridine-4-carboxylic acid piperidin-4-ylamide]",47%
12,"Cc1n[nH]c2nc(-c3ccc(O)cc3)cc(C(=O)N[C@@H]3[C@H]4CC[C@H](C4)[C@H]3CN)c12 [Example 228, 6-(4-Hydroxy-phenyl)-3-methyl-1H-pyrazolo[3,4-b]pyridine-4-carboxylic acid (3-aminomethyl-bicyclo[2.2.1]hept-2-yl)-amide]",91%
13,"Cc1n[nH]c2nc(-c3ccc(O)cc3)cc(C(=O)N3CCNC(C(F)(F)F)C3)c12 (centres unmarked) [Example 196, [6-(4-Hydroxy-phenyl)-3-methyl-1H-pyrazolo[3,4-b]pyridin-4-yl]-(3-trifluoromethyl-piperazin-1-yl)-methanone]",75%
14,"CNC1CCN(C(=O)c2cc(-c3ccc(O)cc3)nc3[nH]nc(C)c23)CC1 [Example 109, [6-(4-Hydroxy-phenyl)-3-methyl-1H-pyrazolo[3,4-b]pyridin-4-yl]-(4-methylamino-piperidin-1-yl)-methanone]",88%
15,"Cc1n[nH]c2nc(-c3ccc(O)cc3)cc(C(=O)N3CCOC4(CCNCC4)C3)c12 [Example 261, [6-(4-Hydroxy-phenyl)-3-methyl-1H-pyrazolo[3,4-b]pyridin-4-yl]-(1-oxa-4,9-diaza-spiro[5.5]undec-4-yl)-methanone]",70%
16,"Cc1n[nH]c2nc(-c3ccc(O)cc3)cc(C(=O)N[C@@H]3CCCC[C@@H]3N)c12 (relative stereo) [Example 126, 6-(4-Hydroxy-phenyl)-3-methyl-1H-pyrazolo[3,4-b]pyridine-4-carboxylic acid (cis-2-amino-cyclohexyl)-amide]",48%
17,"Cc1n[nH]c2nc(-c3ccc(O)c(F)c3)cc(C(=O)NC3CC4(CCNCC4)c4ccccc43)c12 (centres unmarked) [Example 299, 6-(3-Fluoro-4-hydroxy-phenyl)-3-methyl-1H-pyrazolo[3,4-b]pyridine-4-carboxylic acid (2,3-dihydro-spiro[1H-indene-1,4′-piperidin]-3-yl)-amide]",92%
18,"CCc1n[nH]c2nc(-c3ccc(O)cc3)cc(C(=O)N3CCC4(CCCNC4)C3)c12 (centres unmarked) [Example 173, (2,7-Diaza-spiro[4.5]dec-2-yl)-[3-ethyl-6-(4-hydroxy-phenyl)-1H-pyrazolo[3,4-b]pyridin-4-yl]-methanone]",58%
19,"Cc1n[nH]c2nc(-c3ccc(O)c(F)c3)cc(C(=O)N3CCC4(CC3)CNC4)c12 [Example 329, (2,7-Diaza-spiro[3.5]non-7-yl)-[6-(3-fluoro-4-hydroxy-phenyl)-3-methyl-1H-pyrazolo[3,4-b]pyridin-4-yl]-methanone]",72%
20,"Cc1n[nH]c2nc(-c3ccc(O)cc3)cc(C(=O)N3CCNC(C)C3C)c12 (centres unmarked) [Example 194, (2,3-Dimethyl-piperazin-1-yl)-[6-(4-hydroxy-phenyl)-3-methyl-1H-pyrazolo[3,4-b]pyridin-4-yl]-methanone]",99%
21,"Cc1n[nH]c2nc(-c3ccc(O)cc3)cc(C(=O)N3CCN[C@@H](CC(C)C)C3)c12 [Example 215, [6-(4-Hydroxy-phenyl)-3-methyl-1H-pyrazolo[3,4-b]pyridin-4-yl]-((S)-3-isobutyl-piperazin-1-yl)-methanone]",99%
22,"Cc1n[nH]c2nc(-c3ccc(O)c(F)c3)cc(C(=O)N3CCC4CNCC43)c12 (centres unmarked) [Example 308, [6-(3-Fluoro-4-hydroxy-phenyl)-3-methyl-1H-pyrazolo[3,4-b]pyridin-4-yl]-(hexahydro-pyrrolo[3,4-b]pyrrol-1-yl)-methanone]",60%
23,"COC(=O)[C@H]1CNCCN1C(=O)c1cc(-c2ccc(O)cc2)nc2[nH]nc(C)c12 [Example 206, (R)-1-[6-(4-Hydroxy-phenyl)-3-methyl-1H-pyrazolo[3,4-b]pyridine-4-carbonyl]-piperazine-2-carboxylic acid methyl ester]",98%
24,"Cc1n[nH]c2nc(-c3ccc(O)cc3)cc(C(=O)NC3CCNC4(CCC4)C3)c12 (centres unmarked) [Example 204, 6-(4-Hydroxy-phenyl)-3-methyl-1H-pyrazolo[3,4-b]pyridine-4-carboxylic acid (5-aza-spiro[3.5]non-8-yl)-amide]",82%
25,"Cc1n[nH]c2nc(-c3ccc(O)cc3)cc(C(=O)N3CCNCC3c3cccc(F)c3)c12 (centres unmarked) [Example 91, [2-(3-Fluoro-phenyl)-piperazin-1-yl]-[6-(4-hydroxy-phenyl)-3-methyl-1H-pyrazolo[3,4-b]pyridin-4-yl]-methanone]",93%
26,"Cc1n[nH]c2nc(-c3ccc(O)cc3)cc(C(=O)N3CCNCC3c3ccccc3Cl)c12 (centres unmarked) [Example 102, [2-(2-Chloro-phenyl)-piperazin-1-yl]-[6-(4-hydroxy-phenyl)-3-methyl-1H-pyrazolo[3,4-b]pyridin-4-yl]-methanone]",93%
